The values below come from patent US7468391B2, “Methods for treating retinoid responsive disorders using selective inhibitors of CYP26A and CYP26B” (Allergan, Inc., priority 2003, dated 2008).

Molecules are shown by their SMILES. Some results are limits rather than exact numbers.

Assay [1] deals with T1, RAR γ (Homo sapiens, UniProt P13631).
T1 sequence (P13631 1-454): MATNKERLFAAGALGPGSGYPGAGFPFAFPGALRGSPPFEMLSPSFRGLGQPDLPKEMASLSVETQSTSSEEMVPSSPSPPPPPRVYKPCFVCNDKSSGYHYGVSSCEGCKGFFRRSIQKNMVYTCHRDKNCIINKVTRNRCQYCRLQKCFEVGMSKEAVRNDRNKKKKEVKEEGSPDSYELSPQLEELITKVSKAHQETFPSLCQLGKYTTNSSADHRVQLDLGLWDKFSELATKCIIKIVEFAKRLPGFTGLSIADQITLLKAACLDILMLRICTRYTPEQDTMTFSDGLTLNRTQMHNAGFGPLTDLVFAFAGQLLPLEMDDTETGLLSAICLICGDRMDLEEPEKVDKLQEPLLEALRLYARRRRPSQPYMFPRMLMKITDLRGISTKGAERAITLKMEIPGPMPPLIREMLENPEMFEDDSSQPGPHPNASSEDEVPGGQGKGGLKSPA
Description: RAR γ Kd. Format: binding. To be noted: last item of cell EC50/(EFFICACY)/Kd.

For another assay, the target named is T2, CYP26A (P450RAI-1) (Homo sapiens, UniProt O43174).
T2 construct: expressed in transfected cells; host or cells: HeLa
T2 sequence (O43174 1-497): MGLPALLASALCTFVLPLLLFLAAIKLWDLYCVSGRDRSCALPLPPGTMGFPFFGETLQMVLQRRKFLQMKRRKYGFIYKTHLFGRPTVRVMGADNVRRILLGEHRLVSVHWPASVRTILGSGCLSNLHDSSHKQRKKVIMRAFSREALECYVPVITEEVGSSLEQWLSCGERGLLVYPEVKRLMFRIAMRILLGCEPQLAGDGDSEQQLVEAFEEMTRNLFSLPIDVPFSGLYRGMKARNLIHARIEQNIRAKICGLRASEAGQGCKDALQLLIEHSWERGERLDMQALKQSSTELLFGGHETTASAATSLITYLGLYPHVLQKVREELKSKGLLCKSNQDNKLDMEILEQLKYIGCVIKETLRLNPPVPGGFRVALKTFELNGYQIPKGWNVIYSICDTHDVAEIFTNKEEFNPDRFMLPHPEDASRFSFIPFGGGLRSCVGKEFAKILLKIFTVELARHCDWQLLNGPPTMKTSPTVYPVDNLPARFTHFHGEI
Description: Cell-based inhibition of RA metabolism in CYP26A stably transfected HeLa cells. To be noted: stably transfected HeLa cells, [3H]-RA, 3 hours at 37° C.; read-out: P450RAI-1 Whole cell IC50. In outline: (§1)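 Stably transfected HeLa cells (5×10^5/well) in MEM with 10% FBS and 0.05 μCi [3H]-RA, compounds at 10, 1 or 0.1 μM final, 3 h at 37° C. Retinoids extracted by modified Bligh-Dyer (methylene chloride); aqueous radioactivity counted; ID50 for 50% inhibition of RA metabolism derived from log-transformed data.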

Another assay has as its target T3, RAR α (Homo sapiens, UniProt P10276).
T3 sequence (P10276 1-462): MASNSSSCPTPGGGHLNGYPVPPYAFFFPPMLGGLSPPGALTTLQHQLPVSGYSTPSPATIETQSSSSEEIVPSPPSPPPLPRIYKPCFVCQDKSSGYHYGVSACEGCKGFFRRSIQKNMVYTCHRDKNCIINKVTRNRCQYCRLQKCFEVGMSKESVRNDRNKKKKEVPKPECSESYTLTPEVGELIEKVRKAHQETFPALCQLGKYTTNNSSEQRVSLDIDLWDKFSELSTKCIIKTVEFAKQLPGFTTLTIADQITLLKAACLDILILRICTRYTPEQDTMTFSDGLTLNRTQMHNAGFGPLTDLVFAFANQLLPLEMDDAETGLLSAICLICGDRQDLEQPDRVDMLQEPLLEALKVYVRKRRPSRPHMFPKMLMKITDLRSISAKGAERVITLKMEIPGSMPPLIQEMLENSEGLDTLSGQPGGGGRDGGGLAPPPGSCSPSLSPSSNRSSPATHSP
The assay is described as follows: RAR α Kd. The assay is classed as binding. To be noted: last item of cell EC50/(EFFICACY)/Kd.

The target of assay [2] is T4, RAR β (Homo sapiens, UniProt P10826).
T4 sequence (P10826 1-455): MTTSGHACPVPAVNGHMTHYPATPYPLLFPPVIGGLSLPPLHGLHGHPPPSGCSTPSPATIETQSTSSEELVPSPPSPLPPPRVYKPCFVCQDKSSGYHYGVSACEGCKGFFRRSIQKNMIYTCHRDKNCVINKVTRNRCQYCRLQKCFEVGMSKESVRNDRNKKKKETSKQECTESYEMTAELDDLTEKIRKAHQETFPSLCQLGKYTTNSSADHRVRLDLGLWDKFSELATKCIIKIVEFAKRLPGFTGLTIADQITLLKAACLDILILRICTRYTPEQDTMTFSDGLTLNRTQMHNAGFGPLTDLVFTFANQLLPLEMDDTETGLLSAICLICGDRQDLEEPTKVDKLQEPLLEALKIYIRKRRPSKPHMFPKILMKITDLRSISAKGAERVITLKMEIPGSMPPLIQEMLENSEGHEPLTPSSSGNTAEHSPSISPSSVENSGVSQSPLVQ
Description: RAR β EC50/(efficacy). Format: cell-based. Particulars: for RAR β (EFFICACY): value in brackets of cell EC50/(EFFICACY)/Kd.

Assay [3] has as its target T4, RAR β. The assay is described as follows: RAR β Kd. Format: binding. To be noted: last item of cell EC50/(EFFICACY)/Kd.
Another assay deals with T5, CYP26B (P450RAI-2) (Homo sapiens, UniProt Q9NR63).
T5 construct: expressed in transfected cells; host or cells: HeLa
T5 sequence (Q9NR63 1-512): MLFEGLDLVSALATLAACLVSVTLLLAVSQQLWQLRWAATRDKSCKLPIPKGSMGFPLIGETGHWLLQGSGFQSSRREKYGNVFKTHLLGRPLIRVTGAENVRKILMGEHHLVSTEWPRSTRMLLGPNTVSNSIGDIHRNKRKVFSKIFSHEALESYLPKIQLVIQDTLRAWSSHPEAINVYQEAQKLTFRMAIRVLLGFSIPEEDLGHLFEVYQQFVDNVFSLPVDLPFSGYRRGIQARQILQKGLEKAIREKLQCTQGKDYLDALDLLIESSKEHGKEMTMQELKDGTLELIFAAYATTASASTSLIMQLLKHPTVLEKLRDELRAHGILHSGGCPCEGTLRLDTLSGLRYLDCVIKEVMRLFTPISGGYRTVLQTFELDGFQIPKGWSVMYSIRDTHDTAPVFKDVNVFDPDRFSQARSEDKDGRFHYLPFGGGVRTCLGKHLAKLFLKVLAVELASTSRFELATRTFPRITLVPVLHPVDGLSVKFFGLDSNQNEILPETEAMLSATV
The assay is described as follows: Cell-based inhibition of RA metabolism in CYP26B stably transfected HeLa cells. Particulars: stably transfected HeLa cells, [3H]-RA, 3 hours at 37° C.; read-out: P450RAI-2 Whole cell IC50. In outline:
as §1

For assay [4], the target named is T1, RAR γ. The assay is described as follows: RAR γ EC50/(efficacy). Particulars: for RAR γ (EFFICACY): value in brackets of cell EC50/(EFFICACY)/Kd. The assay is classed as cell-based.
[5] abbreviates: first item of cell EC50/(EFFICACY)/Kd.

As for `CCC1(CC)CC(C)(C)c2cc(C#Cc3ccc(C(C)(C)C(=O)O)cc3)cc(C(C)C)c2O1` [Compound 14, 2-[4-(2,2-Diethyl-8-isopropyl-4,4-dimethyl-chroman-6-ylethynyl)-phenyl]-2-methyl-propionic acid], the Kd (in general, the concentration at which binding is half-saturated) was greater than 10 µM on RAR γ [1], 5.17 µM at RAR α and 7.4 µM at RAR β [3]. The IC50 (as a rule, the concentration at which inhibition is half-maximal) on CYP26A (P450RAI-1) is 0.7 µM; at CYP26B (P450RAI-2) it was greater than 10 µM. The “RAR β (EFFICACY)” value at RAR β [2] worked out at 10. Further, the “RAR γ (EFFICACY)” value at RAR γ [4] came out at 25.
As for `CCOC(=O)C1CCC(C)(C)c2cc(C#Cc3ccc(CC(=O)O)cc3)c(C)cc21` (stereo not shown) [Compound 57, 6-(4-Carboxymethyl-phenylethynyl)-4,4,7-trimethyl-1,2,3,4-tetrahydro-naphthalene-1-carboxylic acid ethyl ester], the Kd came out at 7.74 µM at RAR γ [1], 6.03 µM at RAR α and 4.98 µM on RAR β [3]. In addition, the IC50 on CYP26A (P450RAI-1) was 0.4 µM. Also, the “RAR β (EFFICACY)” value on RAR β [2] was determined as 50. Moreover, the “RAR γ (EFFICACY)” value on RAR γ [4] was 35.
Take `CC(C)(C)c1cccc(C#Cc2ccc(/C=C/C(=O)O)cc2)c1` [Compound 35, (E)-3-[4-(3-tert-Butyl-phenylethynyl)-phenyl]-acrylic acid]: the values for the Kd on RAR γ [1], on RAR α and at RAR β [3] were 2.89 µM, 1.93 µM and 2.09 µM, respectively. The IC50 is greater than 10 µM on CYP26A (P450RAI-1) and 0.5 µM on CYP26B (P450RAI-2). Moreover, the results for the EC50 on RAR β [2] (setting [5]) and at RAR γ [4] (setting [5]) were 0.016 µM and 0.126 µM, respectively. Besides, the “RAR β (EFFICACY)” value at RAR β [2] was found to be 80. Moreover, the “RAR γ (EFFICACY)” value at RAR γ [4] was 48.
`CCOC(=O)C1=CCC(C)(C)c2cc(C#Cc3ccc(CC(=O)O)cc3)c(C)cc21` [Compound 55, 6-(4-Carboxymethyl-phenylethynyl)-4,4,7-trimethyl-3,4-dihydro-naphthalene-1-carboxylic acid ethyl ester]: the Kd at RAR γ [1], on RAR α and on RAR β [3] was greater than 10 µM throughout. The concentration for half-maximal inhibition (IC50) was 1.4 µM on CYP26A (P450RAI-1) and greater than 10 µM on CYP26B (P450RAI-2). Moreover, the “RAR β (EFFICACY)” value on RAR β [2] stood at 35. Further, the “RAR γ (EFFICACY)” value at RAR γ [4] worked out at 30.
As for `Cc1ccc(C(C)(C)C)cc1C#Cc1ccc(/C=C/C(=O)O)cc1` [Compound 36, 3-[4-(5-tert-Butyl-2-methyl-phenylethynyl)-phenyl]-acrylic acid], the values for the Kd at RAR γ [1], on RAR α and on RAR β [3] were 2.08 µM, greater than 10 µM and 3.52 µM, respectively. In addition, the IC50 was greater than 10 µM on CYP26A (P450RAI-1) and 0.4 µM at CYP26B (P450RAI-2). Besides, the “RAR β (EFFICACY)” value at RAR β [2] came out at 40. Moreover, at RAR γ [4], the “RAR γ (EFFICACY)” value came out at 15.
Turning to `CC(C)Oc1cc(C#Cc2ccc(CC(=O)O)cc2)cc2c1C(N(C)C1CC1)CCC2(C)C` (stereo not shown) [Compound 41, {4-[5-(Cyclopropyl-methyl-amino)-4-isopropoxy-8,8-dimethyl-5,6,7,8-tetrahydro-naphthalen-2-ylethynyl]-phenyl}-acetic acid], the Kd on RAR γ [1], at RAR α and at RAR β [3] was greater than 10 µM in each case. Besides, the figures for the 50% inhibitory concentration (IC50) at CYP26A (P450RAI-1) and at CYP26B (P450RAI-2) were 0.016 µM and greater than 10 µM, respectively. Further, the “RAR γ (EFFICACY)” value at RAR γ [4] amounted to 30.
Turning to `C=Cc1cc(C#Cc2ccc(CC(=O)O)cc2)cc2c1C(N(C)C1CC1)CCC2(C)C` (stereo not shown) [Compound 23, {4-[5-(Cyclopropyl-methyl-amino)-8,8-dimethyl-4-vinyl-5,6,7,8-tetrahydro-naphthalen-2-ylethynyl]-phenyl}-acetic acid], the Kd at RAR γ [1], at RAR α and on RAR β [3] was greater than 10 µM in each case. The IC50 was 0.008 µM on CYP26A (P450RAI-1) and 0.5 µM at CYP26B (P450RAI-2). On RAR β [2], the “RAR β (EFFICACY)” value stood at 40. Besides, the “RAR γ (EFFICACY)” value at RAR γ [4] was found to be 35.
On to `CN(C1CC1)C1CCC(C)(C)c2cc(C#Cc3ccc(/C=C/C(=O)O)cc3)cc(C3CC3)c21` (stereo not shown) [Compound 48, 3-{4-[4-Cyclopropyl-5-(cyclopropyl-methyl-amino)-8,8-dimethyl-5,6,7,8-tetrahydro-naphthalen-2-ylethynyl]-phenyl}-acrylic acid], for which the IC50 on CYP26A (P450RAI-1) amounted to 0.7 µM. The “RAR β (EFFICACY)” value at RAR β [2] is 40. The “RAR γ (EFFICACY)” value on RAR γ [4] worked out at 25.
For `C/C(=C\c1ccc(C#Cc2cccc(CN(C)C3CC3)c2)cc1)C(=O)O` [Compound 33, 3-(4-{3-[(Cyclopropyl-methyl-amino)-methyl]-phenylethynyl}-phenyl)-2-methyl-acrylic acid], the Kd at RAR γ [1] is greater than 10 µM; on RAR α it was 3.25 µM. Besides, the IC50 at CYP26A (P450RAI-1) is greater than 10 µM; at CYP26B (P450RAI-2) it was 1 µM. Also, the “RAR β (EFFICACY)” value at RAR β [2] stood at 30. For the same molecule, at RAR γ [4], the “RAR γ (EFFICACY)” value was 10.
On to `CN(C1CC1)C1CCC(C)(C)c2cc(C#Cc3ccc(C(C)(C)C(=O)O)cc3)ccc21` (stereo not shown) [Compound 52, 2-{4-[5-(Cyclopropyl-methyl-amino)-8,8-dimethyl-5,6,7,8-tetrahydro-naphthalen-2-ylethynyl]-phenyl}-2-methyl-propionic acid], for which the Kd at RAR γ [1], at RAR α and at RAR β [3] was greater than 10 µM in each case. Also, the values for the IC50 at CYP26A (P450RAI-1) and on CYP26B (P450RAI-2) were 0.4 µM and greater than 10 µM, respectively. Moreover, the “RAR β (EFFICACY)” value on RAR β [2] is less than 5.
